Article PMC9104152, “Phosphoproteomics Unravel HBV Triggered Rewiring of Host Phosphosignaling Events” (International Journal of Molecular Sciences, 2022)

Key:
CDK2 = conditions: target CDK2; reported value, no reference given; cited from earlier work
CDK5 = conditions: target CDK5; reported value, no reference given; cited from earlier work
HepG2-NTCP cells = experiment: Cytotoxicity assay (Cell-titer-GLO Luminescent Cell Viability Assay); assay type: cell-based, human
Procedure: (§1) The IC50 of kinase inhibitors was determined using the Cell-titer-GLO Luminescent Cell Viability Assay kit (Promega, Madison, WI, USA) according to the recommendations from the manufacturer. Briefly, 10,000 HepG2-NTCP cells were seeded into a 96-well plate before treatment with various kinase inhibitor concentrations. Cell viability was assayed at 24 h post-treatment.

[1] = system: HBV infection in HepG2-NTCP cells; experiment: HBV pgRNA level by real-time qPCR in kinase inhibitor treated HBV infected HepG2-NTCP; assay type: cell-based, Hepatitis B virus; conditions: for HBV pgRNA Fold change (Treated/DMSO) / effect on pgRNA level (in words): 1 µM; for effect on pgRNA level (in words): both four dpi and seven dpi
From the text: (§2) HBV were generated from a stable transfected hepablastoma cell line (Hep38.7) that expresses HBV as described previously. Briefly, Hep38.7 (tet-off) cells were induced to produce HBV particles through tetracycline withdrawal. Twelve days after tetracycline removal, culture media containing HBV were harvested and filtered through a 0.22 µm polyethersulfone (PES) membrane filter (Corning, New York, NY, USA). The virus supernatant was then concentrated using a heparin column and eluted with high salt, followed by overnight dialysis in phosphate-buffered saline (PBS). Real-time quantitative PCR was used to quantify the genome copy number of the HBV DNA. For infection, HepG2-NTCP cells at 70% confluence 1-day post-seeding were first treated with synchronisation medium consisting of complete medium with 3% DMSO and 500 µM L-Mimosin for 24 h. the cells were then incubated for 30 min with complete medium containing 800 µM of EGTA at 37 °C in a humidified 5% CO2 incubator. After the removal of EGTA-containing medium, the cells were infected with HBV at a multiplicity of infection (MOI) of 3000 in the presence of 4% PEG 8000 and 2.5% DMSO in DMEM/F12 medium supplemented with 2% FBS for 24 h. For the mock infection, cells were incubated for 24-hour in 4% PEG 8000, 2.5% DMSO in DMEM/F12 medium supplemented with 2% FBS. Upon virus removal followed by washing with PBS four times, HBV-infected cells were cultured in post-infection medium consisting of DMEM/F12 medium with 2% FBS and 1% DMSO. The post-infection medium was replaced at four days post-infection (dpi) and infected cells were harvested at day seven dpi. For phosphoproteome analysis, five biological replicates each of mock and HBV-infected HepG2-NTCP were used.
Total RNA was extracted using the RNeasy Mini Kit (Qiagen, Hilden, Germany) and digested with DNase according to the manufacturer’s protocol. For cDNA synthesis, 250–400 ng of total RNA was reverse transcribed with the iScript cDNA Synthesis Kit (Bio-Rad, Hercules, CA, USA) following the manufacturer’s protocol. cDNA was adjusted to 5 ng/µL using nuclease-free water and 2 μL of cDNA per reaction was used for qPCR analysis. Total DNA was extracted from the cells using the DNeasy Blood and Tissue Kit (Qiagen, Hilden, Germany) according to the manufacturer’s protocol.
To determine pgRNA level after HBV infection, HBV pgRNA was quantified by real-time qPCR using two HBV-specific primers: pgRNA-Forward, 5′-[…]-3′, and pgRNA-Reverse, 5′-[…]-3′ [49]. The housekeeping gene, GAPDH, was amplified using GAPDH forward primer 5′-[…]-3′ and GAPDH reverse primer 5′-[…]-3′. The relative fold change of pgRNA between conditions was determined using the ΔΔct method. Real-time qPCR was performed with iTaq Universal SYBR Green Supermix (Bio-Rad, Hercules, CA, USA). To determine the copy number of intracellular cccDNA, a probe-based qPCR approach was used. cccDNA was amplified using cccDNA forward primer 5′-[…]-3′ and cccDNA reverse primer 5′-[…]-3′. The Taqman probe 56, FAM/[…]/ZEN/[…]/3IABkFQ was used. The cccDNA copy number was determined using a standard curve approach with a 10× serial-diluted cccDNA template, starting from 10ng (Standard rang 1 fg to 1 ng). The reaction was carried out using the Luna Univeral Probe qPCR mix (NEB, Ipswich, MA, USA). To determine the level of HBeAg secretion, the HBeAg CLIA kit (Autobio diagnostic, Zhengzhou, China) was used. This assay was performed on 50 µL of medium harvested at four or seven dpi. All experiments were performed in triplicates and repeated twice for two additional biological replicates. The p-value was calculated using Student’s t-test (two-tailed, * p-value < 0.05, ** p-value < 0.01).
HBV infection on HepG2-NTCP was carried out as described earlier. At one dpi, the kinase inhibitors (Table 1) were added to the post-infection medium after the washing and removal of viruses containing infection medium. […]

CDK1 = conditions: target CDK1; reported value, no reference given; cited from earlier work
[2] = system: HBV infection in HepG2-NTCP cells; experiment: Intracellular cccDNA by probe-based qPCR in kinase inhibitor treated HBV infected HepG2-NTCP; assay type: cell-based; conditions: 1 µM
From the text: as §2
Total RNA was extracted using the RNeasy Mini Kit (Qiagen, Hilden, Germany) and digested with DNase according to the manufacturer’s protocol. For cDNA synthesis, 250–400 ng of total RNA was reverse transcribed with the iScript cDNA Synthesis Kit (Bio-Rad, Hercules, CA, USA) following the manufacturer’s protocol. cDNA was adjusted to 5 ng/µL using nuclease-free water and 2 μL of cDNA per reaction was used for qPCR analysis. […]
To determine pgRNA level after HBV infection, HBV pgRNA was quantified by real-time qPCR using two HBV-specific primers: pgRNA-Forward, 5′-[…]-3′, and pgRNA-Reverse, 5′-[…]-3′ [49]. […] The relative fold change of pgRNA between conditions was determined using the ΔΔct method. […] The cccDNA copy number was determined using a standard curve approach with a 10× serial-diluted cccDNA template, starting from 10ng (Standard rang 1 fg to 1 ng). […] The p-value was calculated using Student’s t-test (two-tailed, * p-value < 0.05, ** p-value < 0.01). […]

CLKs = conditions: target CLKs; reported value, no reference given; cited from earlier work
[3] = Cytotoxicity assay (Cell-titer-GLO Luminescent Cell Viability Assay); assay type: cell-based, human; conditions: human, HepG2-NTCP cells; HepG2-NTCP, cell viability 24 h post-treatment
Procedure: as §1

[4] = system: HBV infection in HepG2-NTCP cells; experiment: HBeAg secretion (HBeAg CLIA kit) in kinase inhibitor treated HBV infected HepG2-NTCP; assay type: cell-based; conditions: 1 µM
From the text: as §2
To determine pgRNA level after HBV infection, HBV pgRNA was quantified by real-time qPCR using two HBV-specific primers: pgRNA-Forward, 5′-[…]-3′, and pgRNA-Reverse, 5′-[…]-3′ [49]. The housekeeping gene, GAPDH, was amplified using GAPDH forward primer 5′-[…]-3′ and GAPDH reverse primer 5′-[…]-3′. The relative fold change of pgRNA between conditions was determined using the ΔΔct method. Real-time qPCR was performed with iTaq Universal SYBR Green Supermix (Bio-Rad, Hercules, CA, USA). To determine the copy number of intracellular cccDNA, a probe-based qPCR approach was used. cccDNA was amplified using cccDNA forward primer 5′-[…]-3′ and cccDNA reverse primer 5′-[…]-3′. The Taqman probe 56, FAM/[…]/ZEN/[…]/3IABkFQ was used. The cccDNA copy number was determined using a standard curve approach with a 10× serial-diluted cccDNA template, starting from 10ng (Standard rang 1 fg to 1 ng). […] The p-value was calculated using Student’s t-test (two-tailed, * p-value < 0.05, ** p-value < 0.01). […]

| Structure (SMILES) | IC50 (HepG2-NTCP cells) | Intracellular cccDNA Fold change (Treated/DMSO) ([2]; 4dpi) | Intracellular cccDNA Fold change (Treated/DMSO) ([2]; 7dpi) | HBeAg Titer Fold change (Treated/DMSO) ([4]; 4dpi) | HBeAg Titer Fold change (Treated/DMSO) ([4]; 7dpi) | HBV pgRNA Fold change (Treated/DMSO) ([1]; 4dpi) | HBV pgRNA Fold change (Treated/DMSO) ([1]; 7dpi) | effect on pgRNA level (in words) [1] | other results |
| --- | --- | --- | --- | --- | --- | --- | --- | --- | --- |
| Nc1cc(Nc2ccc(S(N)(=O)=O)cc2)ncn1 [PNU112455A11] | > 500 µM |  |  |  |  |  |  |  | Ki (CDK2): 3.2 µM; Ki (CDK5): 3.6 µM |
| CN(C)c1nc2c(Br)c(Br)c(Br)c(Br)c2[nH]1 [DMAT] | > 500 µM |  |  |  |  |  |  |  | effect on pgRNA transcription (in words) ([1]; 10 µM, both four and seven dpi): reduction of pgRNA transcription |
| O=C1NC(=NCc2cccs2)S/C1=C\c1ccc2ncccc2c1 [RO-3306] |  |  |  |  |  |  |  |  | Ki (CDK1): 0.035 µM |
| Cn1cc(-c2ccc3occ(-c4cccc(-c5ccncc5)c4)c3n2)cn1 [MU1210] |  | 0.678 | 0.479 | 0.415 | 0.105 | 0.406 | 0.709 | reduction in the pgRNA level | Ki (CLKs): 0.023 µM; IC50 at 24 h [3]: 16.7 µM |
| Cn1cc(-c2ccc3occ(-c4ccccc4-c4ccccc4)c3n2)cn1 [MU140] |  | 0.894 | 0.930 | 0.904 | 0.993 | 1.014 | 1.114 | no such reduction |  |
